Results taken from BindingDB's records for doi:10.1021/ml400413c (Dart Neuroscience, 2013).

Columns and labels:
[1] = biological target: T1, Peroxisome proliferator-activated receptor gamma (Homo sapiens, UniProt P37231); test: Agonist activity at human PPARgamma ligand binding domain expressed in monkey COS7 cells cotransfected with Gal4 by luciferase reporter gene assay
T1 sequence (P37231 whole entry): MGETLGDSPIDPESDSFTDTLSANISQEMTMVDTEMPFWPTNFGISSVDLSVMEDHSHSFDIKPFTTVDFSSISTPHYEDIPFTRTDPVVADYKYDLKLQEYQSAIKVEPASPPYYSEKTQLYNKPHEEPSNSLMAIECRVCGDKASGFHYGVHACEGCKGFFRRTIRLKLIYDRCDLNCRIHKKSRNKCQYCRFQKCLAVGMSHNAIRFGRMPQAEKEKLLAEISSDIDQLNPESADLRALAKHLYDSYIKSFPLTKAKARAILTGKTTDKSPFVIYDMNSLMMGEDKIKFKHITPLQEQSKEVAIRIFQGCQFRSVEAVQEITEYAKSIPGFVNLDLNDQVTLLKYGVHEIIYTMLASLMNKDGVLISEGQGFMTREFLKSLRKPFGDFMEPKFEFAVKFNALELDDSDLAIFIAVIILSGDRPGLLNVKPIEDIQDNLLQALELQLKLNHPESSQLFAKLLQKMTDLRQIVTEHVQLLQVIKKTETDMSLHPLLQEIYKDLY

[2] = biological target: T2, Peroxisome proliferator-activated receptor delta (Homo sapiens, UniProt Q03181); test: Agonist activity at human PPARdelta ligand binding domain expressed in monkey COS7 cells cotransfected with Gal4 by luciferase reporter gene assay
T2 sequence (Q03181 whole entry): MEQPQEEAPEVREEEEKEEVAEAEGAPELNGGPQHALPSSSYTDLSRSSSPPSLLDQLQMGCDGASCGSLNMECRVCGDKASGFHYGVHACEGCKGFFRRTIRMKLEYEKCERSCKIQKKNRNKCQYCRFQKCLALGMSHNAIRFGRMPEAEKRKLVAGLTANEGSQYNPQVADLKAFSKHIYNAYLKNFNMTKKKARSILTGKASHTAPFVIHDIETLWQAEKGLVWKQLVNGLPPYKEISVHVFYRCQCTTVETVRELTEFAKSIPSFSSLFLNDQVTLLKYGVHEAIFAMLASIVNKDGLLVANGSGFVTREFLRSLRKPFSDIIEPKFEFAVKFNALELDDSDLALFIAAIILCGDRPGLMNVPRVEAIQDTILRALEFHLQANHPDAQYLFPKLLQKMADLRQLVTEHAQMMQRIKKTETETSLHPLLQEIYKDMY

Row | SMILES | EC50 [1] [nM] | EC50 [2] [nM]
1 | COC(c1ccc(Br)cc1)C1CC1c1cc(C)c(OC(C)(C)C(=O)O)c(C)c1 (stereo not drawn) | 19 | 54
2 | CCOC(c1ccc(OC(F)(F)F)cc1)C1CC1c1cc(C)c(OC(C)(C)C(=O)O)c(C)c1 (stereo not drawn) | 39 | 
